Like-named read-outs stand apart in the source and are kept apart here.
Columns and labels:
[1] = target: VIM-1 (Pseudomonas aeruginosa (strain ATCC 15692 / DSM 22644 / CIP 104116 / JCM 14847 / LMG 12228 / 1C / PRS 101 / PAO1), UniProt A0A0F7KYQ8); assay: Enzyme activity: determination of IC50, fluorescence assay with CCF2-FA substrate (VIM-1); type: biochemical
[2] = target: NDM-1 (Klebsiella pneumoniae, UniProt C7C422); assay: biochemical; type: biochemical; settings: read-out: NDM-1 IC50
[3] = target: IMP-1 (Serratia marcescens, UniProt P52699); assay: biochemical; type: biochemical; settings: read-out: IMP-1 IC50
Procedure: Enzyme Activity: Determination of IC50
The Class B enzyme activities were measured in the presence of the test inhibitor in a fluorescence assay against a commercially available substrate consisting of a cephalosporin core linking 7-hydroxycoumarin to fluorescein (CCF2-FA). The enzyme (NDM-1, IMP-1 or VIM-1) and the substrate were diluted in 100 mM KH2PO4 buffer (pH 7) containing 0.005% Tween-20 and 10 μM ZnSO4. […] The test inhibitor was dissolved in dimethylsulfoxide and diluted 1:50 in the assay, resulting in a final concentration range of 20 uM to 0.00063 uM. In a 384-well microplate, the test inhibitor was incubated with the metallo-β-lactamase enzyme and the substrate for 2 hours at 25° C. Fluorescence at 460 nm following excitation at 405 nm was measured. The IC50 value was determined from semi-logarithmic plots of enzyme inhibition versus inhibitor concentration, with a curve generated using a 4-parameter fit.

[4] = system: Serratia marcescens expressing IMP-1 (CL5741); assay: Antibiotic potentiation activity: synergistic concentration (MITC95) with imipenem, OD600 growth; type: cell-based; settings: for Serratia marcescens expressing IMP-1 (CL5741) MITC95: concentration giving 95% inhibition of bacterial growth
Summary of the method: (§1)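 CLB30005 was precultured on Mueller Hinton agar with 8 ug/ml imipenem, the other strains on trypticase soy agar with 5% sheep blood, overnight at 35 °C. Saline suspensions diluted 1:100 in 1.1× CAMHB received compound and 4 μg/ml imipenem, then 22–24 h at 35 °C before absorbance reading.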

[5] = system: Escherichia coli expressing NDM-1 (CLB30016); assay: as above; type: cell-based; settings: for Escherichia coli expressing NDM-1 (CLB 30016) MITC95: concentration giving 95% inhibition of bacterial growth
Summary of the method: as §1

[6] = system: Klebsiella pneumoniae expressing VIM-1 (IHMA599644); assay: as above; type: cell-based; settings: for Klebsiella pneumoniae expressing VIM-1 (IHMA 599644) MITC95: concentration giving 95% inhibition of bacterial growth
Summary of the method: as §1

[7] = VIM-1 IC50, fluorescence assay with CCF2-FA substrate
[8] = fluorescence assay with CCF2-FA substrate
[9] = fluorescence assay with CCF2-FA substrate, read-out: VIM-1 IC50
[10] = VIM-1 enzyme, CCF2-FA fluorescence assay, read-out: VIM-1 IC50
[11] = NDM-1 enzyme, CCF2-FA fluorescence assay
[12] = IMP-1 enzyme, CCF2-FA fluorescence assay
[13] = Serratia marcescens expressing IMP-1 (CL5741), 95% growth inhibition
[14] = Escherichia coli expressing NDM-1 (CLB30016), 95% growth inhibition
[15] = Klebsiella pneumoniae expressing VIM-1 (IHMA599644), 95% growth inhibition
[16] = VIM-1 IC50, VIM-1 enzyme, CCF2-FA substrate
[17] = NDM-1 enzyme, CCF2-FA substrate
[18] = IMP-1 enzyme, CCF2-FA substrate
[19] = Serratia marcescens CL5741 (IMP-1), 95% growth inhibition
[20] = (CLB30016, NDM-1), 95% growth inhibition
[21] = Klebsiella pneumoniae IHMA599644 (VIM-1), 95% growth inhibition
[22] = VIM-1 enzyme, CCF2-FA substrate, read-out: VIM-1 IC50
[23] = CL5741 (IMP-1), 95% inhibition of bacterial growth
[24] = CLB30016 (NDM-1), 95% inhibition of bacterial growth
[25] = IHMA599644 (VIM-1), 95% inhibition of bacterial growth

NDM-1, sequence (C7C422 whole entry, looked up, species assumed): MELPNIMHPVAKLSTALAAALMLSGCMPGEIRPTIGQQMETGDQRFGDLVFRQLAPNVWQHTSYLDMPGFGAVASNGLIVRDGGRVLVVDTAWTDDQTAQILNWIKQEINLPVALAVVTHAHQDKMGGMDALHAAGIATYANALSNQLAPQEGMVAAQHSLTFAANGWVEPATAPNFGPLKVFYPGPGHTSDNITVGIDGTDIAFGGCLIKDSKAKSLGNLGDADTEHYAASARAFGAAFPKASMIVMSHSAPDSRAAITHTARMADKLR
IMP-1, sequence (P52699 whole entry, looked up): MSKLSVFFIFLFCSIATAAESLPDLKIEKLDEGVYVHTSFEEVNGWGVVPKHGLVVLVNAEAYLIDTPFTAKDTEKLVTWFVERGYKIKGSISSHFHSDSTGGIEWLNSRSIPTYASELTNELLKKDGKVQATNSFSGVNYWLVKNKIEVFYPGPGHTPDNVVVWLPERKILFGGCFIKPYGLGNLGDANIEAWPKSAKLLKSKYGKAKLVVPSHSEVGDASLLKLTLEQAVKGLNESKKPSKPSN

Cc1cc2nccn2cc1-c1cccc(S(N)(=O)=O)c1-c1nnn[nH]1 [Example 115, 3-(7-methylimidazo[1,2-a]pyridin-6-yl)-2-(1H-tetrazol-5-yl)benzenesulfonamide]
IC50 [1, 7]: 54.4 nM
IC50 [2, 8]: 7.81 nM
IC50 [3, 8]: 544 nM
Serratia marcescens expressing IMP-1 (CL5741) MITC95 [4]: 18.75 µM
Escherichia coli expressing NDM-1 (CLB 30016) MITC95 [5]: 0.25 µM
Klebsiella pneumoniae expressing VIM-1 (IHMA 599644) MITC95 [6]: 37.5 µM

C[N+]1(C)CCC(c2ccc(-c3cccc(S(N)(=O)=O)c3-c3nnn[nH]3)cc2)CC1.O=C([O-])C(F)(F)F [Example 33, 1,1-dimethyl-4-(3′-sulfamoyl-2′-(1H-tetrazol-5-yl)-[1,1′-biphenyl]-4-yl)piperidin-1-ium 2,2,2-trifluoroacetate]
IC50 [1, 9]: 832 nM
IC50 [2, 8]: 16.6 nM
IC50 [3, 8]: 70.6 nM
Serratia marcescens expressing IMP-1 (CL5741) MITC95 [4]: 1.172 µM
Escherichia coli expressing NDM-1 (CLB 30016) MITC95 [5]: 1.172 µM
Klebsiella pneumoniae expressing VIM-1 (IHMA 599644) MITC95 [6]: 100 µM

CCC(CO)NCc1ccc(-c2cccc(S(N)(=O)=O)c2-c2nnn[nH]2)cc1 (stereo in doubt) [Example 345, 4′-({[(1S)-1-(hydroxymethyl)propyl]amino}methyl)-2-(1H-tetrazol-5-yl)biphenyl-3-sulfonamide]
IC50 [1, 10]: 269 nM
IC50 [2, 11]: 18.5 nM
IC50 [3, 12]: 213 nM
Serratia marcescens MITC95 [4, 13]: 4.688 µM
Escherichia coli MITC95 [5, 14]: 1.563 µM
Klebsiella pneumoniae MITC95 [6, 15]: 50 µM

NS(=O)(=O)c1nccc(-n2cnc3ccccc32)c1-c1nn[nH]n1 [Example 246, 4-(1H-benzo[d]imidazol-1-yl)-3-(2H-tetrazol-5-yl)pyridine-2-sulfonamide]
IC50 [1, 10]: 78.3 nM
IC50 [2, 11]: 30.2 nM
IC50 [3, 12]: 2800 nM
Serratia marcescens MITC95 [4, 13]: 150 µM
Escherichia coli MITC95 [5, 14]: 0.5859 µM
Klebsiella pneumoniae MITC95 [6, 15]: 12.5 µM

NS(=O)(=O)c1c(C(F)(F)F)ccc(-c2cccc3c2CCCN3)c1-c1nnn[nH]1 [Example 518, 3-(1,2,3,4-Tetrahydroquinolin-5-yl)-2-(1H-tetrazol-5-yl)-6-(trifluoromethyl)benzenesulfonamide]
IC50 [1, 16]: 0.342 nM
IC50 [2, 17]: 0.775 nM
IC50 [3, 18]: 1.62 nM
Serratia marcescens MITC95 [4, 19]: 0.3906 µM
Escherichia coli MITC95 [5, 20]: 1.563 µM
Klebsiella pneumoniae MITC95 [6, 21]: 6.25 µM

NS(=O)(=O)c1c(CC(F)(F)F)ccc(-c2ccc(C3CCNCC3)cc2)c1-c1nn[nH]n1 [Example 458, 4′-(piperidin-4-yl)-2-(2H-tetrazol-5-yl)-4-(2,2,2-trifluoroethyl)-[1,1′-biphenyl]-3-sulfonamide]
IC50 [1, 10]: 2.12 nM
IC50 [2, 11]: 22.1 nM
IC50 [3, 12]: 2.39 nM
Serratia marcescens MITC95 [4, 13]: 0.125 µM
Escherichia coli MITC95 [5, 14]: 3.125 µM
Klebsiella pneumoniae MITC95 [6, 15]: 3.125 µM

N=C(N)N1CCC(N)(c2ccc(-c3ccc(C(F)(F)F)c(S(N)(=O)=O)c3-c3nn[nH]n3)cc2)CC1 [Example 438, 4-amino-4-(3′-sulfamoyl-2′-(2H-tetrazol-5-yl)-4′-(trifluoromethyl)-[1,1′-biphenyl]-4-yl)piperidine-1-carboximidamide]
IC50 ([1]; VIM-1 IC50, VIM-1 enzyme, CCF2-FA fluorescence assay): 10.8 nM
IC50 [2, 11]: 3.67 nM
IC50 [3, 12]: 4.05 nM
Serratia marcescens MITC95 [4, 13]: 0.25 µM
Escherichia coli MITC95 [5, 14]: 0.125 µM
Klebsiella pneumoniae MITC95 [6, 15]: 2.563 µM

Cc1ccc(-c2ccc(Cl)c(S(N)(=O)=O)c2-c2nn[nH]n2)cc1 [Example 263, 4-chloro-4′-methyl-2-(2H-tetrazol-5-yl)-[1,1′-biphenyl]-3-sulfonamide]
IC50 [1, 10]: 11.5 nM
IC50 [2, 11]: 3.27 nM
IC50 [3, 12]: 21 nM
Serratia marcescens MITC95 [4, 13]: 0.7813 µM
Escherichia coli MITC95 [5, 14]: 0.7813 µM
Klebsiella pneumoniae MITC95 [6, 15]: 18.75 µM

NS(=O)(=O)c1cccc(CC2CCCCC2)c1-c1nnn[nH]1 [Example 153, 3-(cyclohexylmethyl)-2-(1H-tetrazol-5-yl)benzenesulfonamide]
IC50 [1, 7]: 252 nM
IC50 [2, 8]: 8.25 nM
IC50 [3, 8]: 71.3 nM
Serratia marcescens expressing IMP-1 (CL5741) MITC95 [4]: 2.344 µM
Escherichia coli expressing NDM-1 (CLB 30016) MITC95 [5]: 4.688 µM
Klebsiella pneumoniae expressing VIM-1 (IHMA 599644) MITC95 [6]: >200 µM

NS(=O)(=O)c1c(CCO)ccc(-c2cccc3ncccc23)c1-c1nn[nH]n1 [Example 530, 6-(2-Hydroxyethyl)-3-(quinolin-5-yl)-2-(2H-tetrazol-5-yl)benzenesulfonamide]
IC50 [1, 22]: 0.3 nM
IC50 [2, 17]: 1.15 nM
IC50 [3, 18]: 25.9 nM
Serratia marcescens MITC95 [4, 19]: 0.5859 µM
Escherichia coli MITC95 [5, 20]: 3.125 µM
Klebsiella pneumoniae MITC95 [6, 21]: 4.688 µM

Nc1nc2cc(C(F)(F)F)cc(-c3ccc(C(F)(F)F)c(S(N)(=O)=O)c3-c3nnn[nH]3)c2[nH]1 [Example 567]
IC50 [1, 22]: 0.225 nM
IC50 [2, 17]: 0.299 nM
IC50 [3, 18]: 3.77 nM
Serratia marcescens MITC95 [4, 19]: 6.25 µM
Escherichia coli MITC95 [5, 20]: 3.125 µM
Klebsiella pneumoniae MITC95 [6, 21]: 6.25 µM

NCCNC1CCC(c2ccc(C(F)(F)F)c(S(N)(=O)=O)c2-c2nnn[nH]2)CC1 (stereo not drawn) [Example 827, 3-[4-(trans-2-aminoethylamino)cyclohexyl]-2-(1H-tetrazol-5-yl)-6-(trifluoromethyl)benzenesulfonamide]
IC50 [1, 7]: 2.59 nM
IC50 [2, 8]: 5.72 nM
IC50 [3, 8]: 22.6 nM
Serratia marcescens MITC95 [4, 23]: 0.3906 µM
Escherichia coli MITC95 [5, 24]: 0.3906 µM
Klebsiella pneumoniae MITC95 [6, 25]: 1.172 µM

NS(=O)(=O)c1nccc(N2CCC(Oc3ncccn3)CC2)c1-c1nnn[nH]1 [Example 231, 4-[4-(pyrimidin-2-yloxy)piperidin-1-yl]-3-(1H-tetrazol-5-yl)pyridine-2-sulfonamide]
IC50 [1, 9]: 326 nM
IC50 [2, 8]: 10.8 nM
IC50 [3, 8]: 423 nM
Serratia marcescens expressing IMP-1 (CL5741) MITC95 [4]: 18.75 µM
Escherichia coli expressing NDM-1 (CLB 30016) MITC95 [5]: 4.688 µM
Klebsiella pneumoniae expressing VIM-1 (IHMA 599644) MITC95 [6]: >200 µM

Nc1ccc2cc(-c3ccc(C(F)(F)F)c(S(N)(=O)=O)c3-c3nnn[nH]3)ccc2n1 [Example 745, 3-(2-aminoquinolin-6-yl)-2-(1H-tetrazol-5-yl)-6-(trifluoromethyl)benzenesulfon-amide]
IC50 [1, 9]: 0.175 nM
IC50 [2, 8]: 1.05 nM
IC50 [3, 8]: 1.5 nM
Serratia marcescens MITC95 [4, 23]: 3.125 µM
Escherichia coli MITC95 [5, 24]: 0.7813 µM
Klebsiella pneumoniae MITC95 [6, 25]: 3.125 µM

Nc1nc2c(-c3ccc(C(F)(F)F)c(S(N)(=O)=O)c3-c3nnn[nH]3)cccc2s1 [Example 423, 3-(2-amino-1,3-benzothiazol-4-yl)-2-(2H-tetrazol-5-yl)-6-(trifluoromethyl)benzenesulfonamide]
IC50 [1, 10]: 0.711 nM
IC50 [2, 11]: 0.378 nM
IC50 [3, 12]: 1.29 nM
Serratia marcescens MITC95 [4, 13]: 0.125 µM
Escherichia coli MITC95 [5, 14]: 1.086 µM
Klebsiella pneumoniae MITC95 [6, 15]: 3.125 µM

NS(=O)(=O)c1cccc(-c2cnc3ccc(Cl)nn23)c1-c1nnn[nH]1 [Example 652, 3-(6-chloroimidazo[1,2-b]pyridazin-3-yl)-2-(1H-tetrazol-5-yl)benzenesulfonamide]
IC50 [1, 22]: 27.4 nM
IC50 [2, 17]: 5.37 nM
IC50 [3, 18]: 167 nM
Serratia marcescens MITC95 [4, 19]: 12.5 µM
Escherichia coli MITC95 [5, 20]: 1.563 µM
Klebsiella pneumoniae MITC95 [6, 21]: 25 µM

NC[C@H](N)C(=O)NC1CCC(c2ccc(C(F)(F)F)c(S(N)(=O)=O)c2-c2nnn[nH]2)CC1 (stereo partly drawn) [Example 837, (S)-2,3-diamino-N-((1r,4S)-4-(3-sulfamoyl-2-(1H-tetrazol-5-yl)-4-(trifluoromethyl)phenyl)cyclohexyl)propanamide]
IC50 [1, 9]: 2.9 nM
IC50 [2, 8]: 8.68 nM
IC50 [3, 8]: 21.2 nM
Serratia marcescens MITC95 [4, 23]: 0.5859 µM
Escherichia coli MITC95 [5, 24]: 1.563 µM
Klebsiella pneumoniae MITC95 [6, 25]: 6.25 µM

NS(=O)(=O)c1c(C(F)(F)F)ccc(-c2ccc(C3CCNCC3)nc2)c1-c1nnn[nH]1 [Example 744, 3-(6-piperidin-4-ylpyridin-3-yl)-2-(1H-tetrazol-5-yl)-6-(trifluoromethyl)benzenesulfon-amide]
IC50 [1, 7]: 0.907 nM
IC50 [2, 8]: 16.3 nM
IC50 [3, 8]: 18.1 nM
Serratia marcescens MITC95 [4, 23]: 12.5 µM
Escherichia coli MITC95 [5, 24]: 6.25 µM
Klebsiella pneumoniae MITC95 [6, 25]: 12.5 µM

NS(=O)(=O)c1cccc(-c2cccc3sc(NC4CCN(CCF)CC4)nc23)c1-c1nnn[nH]1 [Example 646, 3-[2-[[1-(2-fluoroethyl)-4-piperidyl]amino]-1,3-benzothiazol-4-yl]-2-(1H-tetrazol-5-yl)benzenesulfonamide]
IC50 [1, 16]: 5.1 nM
IC50 [2, 17]: 0.851 nM
IC50 [3, 18]: 31.8 nM
Serratia marcescens MITC95 [4, 19]: 50 µM
Escherichia coli MITC95 [5, 20]: 3.125 µM
Klebsiella pneumoniae MITC95 [6, 21]: 100 µM

— US9708336B2, “Metallo-beta-lactamase inhibitors” (priority 2014, dated 2017)
